Source: patent EP0358766A1, “METHOD OF STERILIZING PLANT ANTHERS” (VSESOJUZNY NAUCHNO-ISSLEDOVATELSKY INST. SELSKOKHOZYAISTV. …, priority 1988, dated 1989)

Key:
[1] = system: Sonnenblume Sorte Peredovik; assay: Field test of pollen sterilisation, sunflower Peredovik; format: in vivo
From the text: (§1) Die gametozide Aktivität der erfindungsgemäßen Sterilisationsmittel war in Feldversuchen in verschiedenen bodenklimatischen Zonen mit Teilstücken von 10 m^2 Größe in dreibis viermaliger Wiederholung festgestellt. Jedes Sterilisationsmittel wurde mindenstens 5 Jahre lang geprüft.
(§2) Die Entwicklung der Perioden der Organogenese wird zytologisch überwacht. Die Behandlung von Pflanzen mit dem Sterilisationsmittel erfolgt am Anfang der fünften Periode der Organogenese nach Kupermann.
(§3) Zur Kontrolle der chemischen Sterilisation des Sonnenblumenpollens werden für jede Verbindung 45 behandelte Pflanzen je Wiederholung benutzt, wobei 15 Pflanzen zwecks Selbstbestäubung des Blütenkörbchens isoliert werden, 15 Pflanzen mit einem Pollengemisch, gesammelt von 20 bis 25 behandelten isolierten Körbchen, bestäubt werden, und 15 Pflanzen für freie Bestäubung gelassen werden, damit das Ansetzen von Achänen mit dem Pollen der Vaterform kontrolliert worden kann.
(§4) Man beurteilt die Pollensterilität von Pflanzen der Sonnenblume nach der Pollenfertilität und -keimfähigkeit, nach den morphologischen Besonderheiten von Spermien und nach der Fähigkeit von Achänen […] bei der Bestäubung der behandelten isolierten Pflanzen mit dem Pollen der unbehandelten väterlichen Form. Die Lebensfähigkeit der Eizelle wird nach der Samenbildung bei behandelten Pflanzen bei freier Bestäubung der väterlichen Form bestimmt.
Pflanzen der Sonnenblume Sorte Peredovik werden in der V. Periode der Organogenese (nach Kupermann) mit einer 0,2%igen wäßrigen Emulsion von 1,1,3-Tribrompropan, 1,2--Dibrompropan behandelt. Die Emulsion enthält 0,5 Masse% C12-C14-Kalziumalkylbenzolsulfonat und 0,01 Masse% Dimethylsulfoxid als Adjuvans. Der Verbrauch an Präparat beträgt 1,2 kg/ha bei 600 1 Wasserdurchsatz. Die Prüfergebnisse sind in der Tabelle 16 angegeben. Die gleichen Ergebnisse sind bei der Behandlung der Sonnenblume Sorte Peredovik in der VI. Periode der Organogenese erhalten.
Man verfährt analog den Beispielen 85 und 86. Als Sterilisationsmittel dient eine 0,1%ige wäßrige Emulsion von 1,2-Dibrom-3-chlorpropan. Der Verbrauch an Präparat beträgt […]. Die Prüfergebnisse sind in der Tabelle 16 angegeben.

[2] = system: Tritikale Ampfindiploid 206; assay: Field test of gametocidal activity, triticale Amphidiploid 206; format: in vivo; details: period V, 1% aqueous emulsion, 6 kg/ha in 600 l water; for Prozentsatz des Ansetzens von Samen bei freier Bestäubung: control = 100
From the text: as §1, §2
(§5) Mit dem Ährenschieben verwirklicht man die Isolierung von Hauptähren und anderen Stockwerken in Pergametbeuteln. Bei Weizen und Tritikale werden Einzelisolatoren benutzt. Bei Roggen schließt man je 1 Ähre von […] verschiedenen nebeneinander befindlichen Pflanzen unter einen gemeinsamen Isolator ein. Bei Hirse wird jede Rispe getrennt isoliert. Der Sterilitätsprozentsatz (X) für Weizen, Roggen, Tritikale und Hirse wird nach der Formel [formula] ermittelt.
(§6) Die Kornzahl in nicht isolierten Ähren von Kontrollpflanzen wird bedingt für 100 % Ansetzen bei freier Bestäubung angenommen.
(§7) Um zuverlässige Angaben zu erhalten, verwendet man 20 bis 25 Isolatoren je Wiederholung für Weizen und Tritikale, 10 bis 15 Isolatoren jeder Wiederholung für Roggen und Hirse.
Pflanzen von Tritikale Ampfindiploid 206 werden in der V.Periode der Organogenese (nach Kupermann) mit einer 1%igen wäßrigen Emulsion von 1,1,3-Tribrompropan bzw. 1,2-Dibromheptan behandelt. Die Emulsion enthält 0,5 Masse% C12-C14--Kalziumalkylbenzolsulfonat und 0,01 Masse% Dimethylformamid. Der Verbrauch an Präparat beträgt 6 kg/ha bei 600 1 Wasserdurchsatz. Die Prüfergebnisse sind in der Tabelle 6 angegeben.
Die gleichen Ergebnisse sind bei der Behandlung von Tritikale Amphidiploid 206 in der VI. Periode der Organogenese erhalten.

[3] = system: Winterweizens Sorte Mironowskaya 808; assay: Field test of gametocidal activity (anther sterilisation), winter wheat Mironowskaya 808; format: in vivo, Weizen; details: read-out: Prozentsatz der Sterilität %
[4] = system: Sonnenblume Linie BK 119; assay: Field test of pollen sterilisation, sunflower line BK 119; format: in vivo
From the text: as §1, §2, §3, §4
Pflanzen der Sonnenblume Linie BK 119 werden mit einer 0,2%igen wäßrigen Emulsion von 1,1,3-Tribrompropan bzw. 1,2-Dibrompropan behandelt. Die Emulsion enthält 0,5 Masse% C12-C14 Natriumalkylbenzolsulfonat und 0,01 Masse% Dimethylformamid als Adjuvans. Der Verbrauch an Präparat beträgt 1,2 kg/ha bei 600 1 Wasserdurchsatz. Die Prüfergebnisse sind in der Tabelle 17 angegeben. Die gleichen Ergebnisse sind bei der Behandlung von Sonnenblume Linie BK in der VI. Periode der Organogenese erhalten.
Man verführt analog den Beispielen 88-89. Als Sterilisationsmittel dient eine 0,1%ige wäßrige Emulsion von 1,2--Dibrom-3-chlorpropan. Der Verbrauch an Präparat beträgt 0,6 kg/ha bei 600 1 Wasserdurchsatz. Die Prüfergebnisse sind in der Tabelle 17 angegeben.

[5] = system: tetraploidem Roggen Belta; assay: Field test of gametocidal activity, tetraploid rye Belta; format: in vivo; details: period V, 1% aqueous emulsion, 6 kg/ha in 600 l water; for Prozentsatz des Ansetzens von Samen bei freier Bestäubung: control = 100
From the text: as §1, §2, §5, §6, §7
Pflanzen von tetraploidem Roggen Belta werden in der V.Periode der Organogenese (nach Kupermann) mit einer 1%igen wäßrigen Emulsion von 1,1,3-Tribrompropan, 1,1,3--Tribrom-4-chlorbutan, 1,1,2,3-Tetrabrompropan, 1,2,3-Tribrompropan, 1,1,3-Tribrom-3-chlorpropan bzw. 1,2-Dibrom--3-chlorpropan behandelt.
Die Emulsion enthält 0,5 Masse% C12-C14-Kalziumalk^yl-benzolsulfonat und 0,01 Masse% Dimethylsulfoxid. Der Verbrauch an Präparat beträgt 6 kg/ha bei 600 1 Wasserdurchsatz.Die Prüfergebnisse sind in der Tabelle 7 angegeben. Die gleichen Ergebnisse sind bei der Behandlung von tetraploidem Roggen Belta in der VI. Periode der Organogenese erhalten.

[6] = Toxicity in animal test (LD50); parameters: species or system Mäuse; details: in vivo, mice stated only for 1,1,3-Tribrompropan, species not given for the others
From the text: Alle erfindungsgemäßen Polybromalkane, die als Sterilisationsmittel zur Verwendung kommen, waren auf die Toxizität im Tierversuch geprüft. Die Prüfergebnisse haben ergeben, daß die angegebenen Verbindungen von schwacher oder mittlerer Toxizität sind.

[7] = system: Sommerweizens Sorte Botanicheskaya 4; assay: Field test of gametocidal activity, spring wheat Botanicheskaya 4; format: in vivo, Weizen; details: period V, 1% aqueous emulsion, 6 kg/ha in 600 l water; for Prozentsatz des Ansetzens von Samen bei freier Bestäubung: control = 100
From the text: as §1, §2, §5, §6, §7
Pflanzen des Sommerweizens Sorte Botanicheskaya 4 werden in der V. Periode der Organogenese (nach Kupermann) mit einer 1%igen wäßrigen Emulsion von 1,3-Dibrompropan, 1,1,1,3-Tetrabromheptan, 1,1,2-Tribromheptan bzw. 1,2--Dibromheptan behandelt. Die Emulsion enthält 0,5 Masse% C12-C14-Kalziumalkylbenzolsulfonat und 0,01 Masse% Dimethylsulfoxid als Adjuvans. Der Verbrauch an Präparat beträgt 6 kg/ha bei 600 1 Wasserdurchsatz. Als Kontrolle dienen Pflanzen, behandelt mit dem Verdünner ohne Sterilisationsmittel.
Die Prüfergebnisse sind in der Tabelle 4 angegeben. Die gleichen Ergebnisse sind bei der Behandlung des Sommerweizens Sorte Botanicheskaya 4 in der VI. Periode der Organogenese erhalten.

[8] = period V, 0.2% aqueous emulsion, 1.2 kg/ha in 600 l water
[9] = 0.2% aqueous emulsion, 1.2 kg/ha in 600 l water
[10] = 0.1% aqueous emulsion, 1.0 kg/ha
[11] = 0.1% aqueous emulsion, 0.6 kg/ha in 600 l water

SMILES	Ansetzen bei freier Bestäubung in % [1, 8]	Ansetzen im Isolator bei Pollengemischbestäubung in % [1, 8]	Pollenleistung in % [1, 8]	Pollensterilität in % [1, 8]	Kornzahl der Ähre bei freier Bestäubung [2]	Kornzahl der Ähre im Isolator [2]	Prozentsatz der Sterilität [2]	Prozentsatz des Ansetzens von Samen bei freier Bestäubung [2]	Ansetzen bei freier Bestäubung in % [4, 9]	Ansetzen im Isolator bei Pollengemischbestäubung in % [4, 9]	Pollenstesterilität in % [4, 9]	Kornzahl der Ähre bei freier Bestäubung [5]	Kornzahl der Ähre im Isolator [5]	Prozentsatz der Sterilität [5]	Prozentsatz des Ansetzens von Samen bei freier Bestäubung [5]	LD50 [6] [mg/kg]	Kornzahl der Ähre bei freier Bestäubung [7]	Kornzahl der Ähre im Isolator [7]	Prozentsatz der Sterilität [7]	Prozentsatz des Ansetzens von Samen bei freier Bestäubung [7]	other results
BrCCC(Br)Br [Beispiel 1, 1,1,3-Tribrompropan]	78,7%	0,0%	30,0%	100,0%	30,1	0,0	100,0%	82,2%	80,4%	0,0%	100,0%	34,5	1,2	97,0%	78,1%	540					pest or weed control at 1 %, 20000 g/ha [3]: 98%
BrCC(Br)CBr [Beispiel 4, 1,2,3-Tribrompropan]												42,0	0,0	100,0%	95,0%						
CC(Br)CBr (stereo not shown) [Beispiel 5, 1,2-Dibrompropan]	84,5%	0,0%	13,1%	100,0%					88,2%	0,0%	100,0%										
ClCC(Br)CBr (stereo not shown) [Beispiel 7, 1,2-Dibrom-3-chlorpropan]												37,4	0,0	100,0%	84,6%	~170					Ansetzen bei freier Bestäubung in % [1, 10]: 81,4%; Ansetzen im Isolator bei Pollengemischbestäubung in % [1, 10]: 0,0%; Pollenleistung in % [1, 10]: 0,0%; Pollensterilität in % [1, 10]: 100,0%; Ansetzen bei freier Bestäubung in % [4, 11]: 82,0%; Ansetzen im Isolator bei Pollengemischbestäubung in % [4, 11]: 0,0%; Pollenstesterilität in % [4, 11]: 100,0%
CCCCC(Br)CC(Br)(Br)Br (stereo not shown) [Beispiel 9, 1,1,1,3-Tetrabromheptan]																	28,1	0,0	100,0%	90,9%	
CCCCCC(Br)CBr (stereo not shown) [Beispiel 11, 1,2-Dibromheptan]					29,2	0,0	100,0%	79,8%									23,6	0,0	100,0%	76,4%	
